Results as given in article PMC5896380, “Selective imaging of cathepsin L in breast cancer by fluorescent activity-based probes” (Chemical Science, 2018).

Columns and labels:
[1] = tested on: cathepsins L and B in HEK293T cells; test: Cathepsin labeling by Cy5 probes in HEK293T cells, immunoblotting; assay type: cell-based, human; conditions: 1 μM probe, 0–18 hours
Method: Figure S3 Cathepsins labeling by two Cy5-tagged probes in HEK293T cells. Panel A. Cells (100,000/well/mL) were incubated with MP-cL3 (1µM) probe for 0-18 hours. Next, cells were harvested and subjected for Western blotting. MP-cL3 probe is very selective toward cathepsin L even after 18 hours of incubation (only residual cathepsin B activity is detected).
MDA-MB-231, thus mostly heavy chain of cathepsin L is labeled. Panel B and Panel C. Cells (100,000/well/mL) were incubated with pan-specific MP-pc1 (1µ M) probe for 0-18 hours. Next, cells were harvested and subjected […]
(1 picture or pasted object on this page, not shown here)

[2] = target: T1, cathepsin B (Homo sapiens, UniProt P07858); test: kobs/I of activity-based probes, cathepsin B; assay type: biochemical; conditions: Fig. 6A; pseudo-first order, probe at least 5-fold excess over cathepsin, 100 μM ACC substrate; pH 5.5, 37 °C; triplicate, SD below 20%
T1 construct: made in house
Method: (§1) All kinetic experiments were performed using fMax (Molecular Devices) and CLARIOStar (BMG LABTECH) spectrofluorimeters operating in kinetic mode using 96-well plates. ACC-labeled substrates were screened using 355 nm and 460 nm wavelengths (excitation and emission, respectively). […] The buffer was prepared at room temperature and the enzyme kinetic studies were performed at 37 °C.
(§2) For the kinetic studies, five recombinant human cathepsins (B, L, V, K and S) were expressed and purified and active site titrated using an E64 inhibitor. The kobs/I parameter was measured under pseudo-first order kinetic conditions, as described.[40] The cathepsin of interest was mixed with various concentrations of probe (at least 5-fold excess over cathepsin) and 100 μM ACC-fluorescence substrate. The experiments were repeated at least three times, and the results are presented as an average. The SDs were below 20%.

[3] = tested on: cathepsin B in MDA-MB-231 cells; test: Weighted colocalization of probe with cathepsin B antibody, confocal microscopy; assay type: cell-based, human; conditions: CatB ab (8h), 1 μM probe
Method: Glass coverslips 15 mm in diameter were placed in 12-well plates and coated with poly-D-lysine (500 μL, 1 mg mL^–1 in water, Specialty Media) for 30 minutes. The poly-D-lysine was aspirated and the coverslips were washed twice with sterile water and air-dried. Next, low passage MDA-MB-231 cells in DMEM (100 000 cells per mL) were added to wells (1 mL per well) and allowed to attach for 2 hours. Cells were then treated with Cy5-labeled probes (1 μM) for 8 or 24 hours. The control cells were preincubated with E64d for 2 hours. After various incubation times, the medium was removed and the cells were gently washed twice with DPBS (1 mL each). The cells were then fixed with ice-cold methanol (500 μL per well) for 15 minutes at –20 °C. […] Cathepsins L and B were detected by primary goat anti-hCathepsin L (R&D, AF952, 0.2 mg mL^–1, 1 : 200) and goat anti-hCathepsin B (R&D, AF953, 0.2 mg mL^–1, 1 : 80), respectively, in 3% BSA in DPBS (with 0.5% Triton-X, v/v) for 2 hours at room temperature. […] Next, the cells were washed twice with DPBS, and coverslips were mounted using Vectashield mounting medium fluorescence containing DAPI (Vector Lab. H-1000). […] All images were acquired in .tiff format in MetaMorph software or in .lsm format in ZEN software and analyzed using ImageJ and ZEN software. […]

[4] = target: T2, cathepsin S (Homo sapiens, UniProt P25774); test: kobs/I of activity-based probes, cathepsin S; assay type: biochemical; conditions: Fig. 6A; pseudo-first order, probe at least 5-fold excess over cathepsin, 100 μM ACC substrate; pH 5.5, 37 °C; triplicate, SD below 20%
T2 construct: made in house
T2 sequence (P25774 115-331): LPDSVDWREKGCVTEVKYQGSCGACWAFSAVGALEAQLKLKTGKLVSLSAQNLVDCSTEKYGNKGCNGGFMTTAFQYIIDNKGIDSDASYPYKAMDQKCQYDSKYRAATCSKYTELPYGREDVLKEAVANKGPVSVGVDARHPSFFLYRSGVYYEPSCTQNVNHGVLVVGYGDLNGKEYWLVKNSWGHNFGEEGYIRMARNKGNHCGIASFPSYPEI
Method: as §1, §2

[5] = tested on: cathepsin L in MDA-MB-231 cells; test: Weighted colocalization of probe with cathepsin L antibody, confocal microscopy; assay type: cell-based, human; conditions: 1 μM probe
Method: Glass coverslips 15 mm in diameter were placed in 12-well plates and coated with poly-D-lysine (500 μL, 1 mg mL^–1 in water, Specialty Media) for 30 minutes. The poly-D-lysine was aspirated and the coverslips were washed twice with sterile water and air-dried. Next, low passage MDA-MB-231 cells in DMEM (100 000 cells per mL) were added to wells (1 mL per well) and allowed to attach for 2 hours. Cells were then treated with Cy5-labeled probes (1 μM) for 8 or 24 hours. The control cells were preincubated with E64d for 2 hours. After various incubation times, the medium was removed and the cells were gently washed twice with DPBS (1 mL each). The cells were then fixed with ice-cold methanol (500 μL per well) for 15 minutes at –20 °C. The methanol was gently removed and the fixed cells were washed twice with DPBS, blocked and permeabilized with 10% BSA in DPBS (with 0.5% Triton-X, v/v) for 1 hour at room temperature, and washed twice with 3% BSA in DPBS (with 0.5% Triton-X, v/v). Cathepsins L and B were detected by primary goat anti-hCathepsin L (R&D, AF952, 0.2 mg mL^–1, 1 : 200) and goat anti-hCathepsin B (R&D, AF953, 0.2 mg mL^–1, 1 : 80), respectively, in 3% BSA in DPBS (with 0.5% Triton-X, v/v) for 2 hours at room temperature. The antibodies were removed and the cells were washed twice with 3% BSA in DPBS (with 0.5% Triton-X, v/v) and labeled with a secondary antibody (Alexa Fluor™ 488 donkey anti-goat IgG (H + L), A11055, Invitrogen, 1 : 500) in DPBS (with 0.5% Triton-X, v/v) for 1 hour at room temperature. Next, the cells were washed twice with DPBS, and coverslips were mounted using Vectashield mounting medium fluorescence containing DAPI (Vector Lab. H-1000). In brief, a drop of mounting medium was placed on the Superfrost Plus microscope slide (Fisher Scientific, no. 12-550-15) and the coverslip was placed on the drop upside-down. […] DAPI was detected using the UV channel, the Cy5 probe was detected with a Cy5 filter (excitation at 647 nm (Axio Observer) or 633 nm (Zeiss LSM), emission at 667 nm; red channel) and cathepsins/secondary antibodies were read using FITC filters (excitation at 495 nm (Axio Observer) or 488 nm (Zeiss LSM), emission at 517 nm; […]; green channel). All images were acquired in .tiff format in MetaMorph software or in .lsm format in ZEN software and analyzed using ImageJ and ZEN software. […]
To quantify ABP/cathepsin colocalization we calculated weighted colocalization coefficients between the MP-cL3 ABP (red) and cathepsin L (green) and between the MP-cL3 ABP (red) and cathepsin B (green) using ZEN 2011 software. […]

[6] = target: T3, cathepsin V (Homo sapiens, UniProt O60911); test: kobs/I of activity-based probes, cathepsin V; assay type: biochemical; conditions: Fig. 6A; pseudo-first order, probe at least 5-fold excess over cathepsin, 100 μM ACC substrate; pH 5.5, 37 °C; triplicate, SD below 20%
T3 construct: made in house
T3 sequence (O60911 114-334): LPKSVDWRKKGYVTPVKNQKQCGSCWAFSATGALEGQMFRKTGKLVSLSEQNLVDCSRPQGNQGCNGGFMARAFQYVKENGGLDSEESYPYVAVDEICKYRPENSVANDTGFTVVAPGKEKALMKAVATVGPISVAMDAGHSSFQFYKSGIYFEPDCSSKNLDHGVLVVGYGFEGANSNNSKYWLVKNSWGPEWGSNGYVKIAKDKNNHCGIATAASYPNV
Method: as §1, §2

[7] = tested on: cathepsins L, V, B, S and K; test: Labeling of recombinant cathepsins by Cy5 probes, SDS-PAGE; assay type: biochemical, human; conditions: cathepsins 10 nM or 100 nM, probe/enzyme ratio 0.2, 1, 5 and 25, 30 min, Cy5 scan
Method: In experiment A, the probe concentrations were 2 nM, 10 nM, 50 nM and 250 nM, while in experiment B the probe concentrations were 20 nM, 100 nM, 500 nM and 2.5 μM. The reaction volume for all the samples was 200 μL. After 30 min, 100 μL of 3× SDS/DTT was added to the reaction mixtures, the samples were boiled for 5 min, and then 20 μL of the sample was run on 4–12% Bis-Tris Plus 15-well gels for 30 min at 200 V with 2 μL of PageRuler™ Prestained Protein Ladder. The gels were then directly scanned at 700 nm (red channel for Cy5 detection; excitation 685 nm) using an Odyssey fluorescence imaging system (LI-COR) and the images were analyzed using Image Studio software.

## Cy5-6-ahx-His-DThr-Phe(F5)-Cys(Bzl)-AOMK [MP-cL3]
[1]
  cathepsins labeled in HEK293T cells: bound only cathepsin L
[2]
  kobs/I Cath-B: 780 M⁻¹ s⁻¹
[3]; single cells analysis, 68 single cells
  weighted colocalization coefficient: 0.635
[3]; whole pictures analysis, 7 images
  weighted colocalization coefficient: 0.646
[4]
  kobs/I Cath-S: 225 M⁻¹ s⁻¹
[5]; CatL ab (8h), single cells analysis, 98 single cells
  weighted colocalization coefficient: 0.928
[5]; CatL ab (8h), whole pictures analysis, 8 images
  weighted colocalization coefficient: 0.937
[5]; CatL ab (24h), single cells analysis, 59 single cells
  weighted colocalization coefficient: 0.695
[5]; CatL ab (24h), whole pictures analysis, 8 images
  weighted colocalization coefficient: 0.725
[6]
  kobs/I Cath-V: 380 M⁻¹ s⁻¹
[7]
  labeling of recombinant cathepsins L, V, B, S and K: very high degree of selectivity
